From patent US6984649B1, “Pyridine derivatives” (Bayer Aktiengesellschaft, priority 2000, dated 2006)
pIC50: −log10 of the molar value.

Each compound was assayed against T1, human IKK-β (Homo sapiens, UniProt O14920) (assay: IKK-β kinase inhibitory assay). Conditions: compounds as yielded by solid phase synthesis, purity about 40 to 90%, read-out: In vitro activity grade (In vitro IC50).
T1 construct: A cDNA fragment encoding human IKK-β open reading frame was generated by PCR; His tag (from pcDNA3.1/His C); made in house; host or cells: Sf21 insect cells (baculovirus); substrate made in E. coli
T1 sequence (O14920 1-756): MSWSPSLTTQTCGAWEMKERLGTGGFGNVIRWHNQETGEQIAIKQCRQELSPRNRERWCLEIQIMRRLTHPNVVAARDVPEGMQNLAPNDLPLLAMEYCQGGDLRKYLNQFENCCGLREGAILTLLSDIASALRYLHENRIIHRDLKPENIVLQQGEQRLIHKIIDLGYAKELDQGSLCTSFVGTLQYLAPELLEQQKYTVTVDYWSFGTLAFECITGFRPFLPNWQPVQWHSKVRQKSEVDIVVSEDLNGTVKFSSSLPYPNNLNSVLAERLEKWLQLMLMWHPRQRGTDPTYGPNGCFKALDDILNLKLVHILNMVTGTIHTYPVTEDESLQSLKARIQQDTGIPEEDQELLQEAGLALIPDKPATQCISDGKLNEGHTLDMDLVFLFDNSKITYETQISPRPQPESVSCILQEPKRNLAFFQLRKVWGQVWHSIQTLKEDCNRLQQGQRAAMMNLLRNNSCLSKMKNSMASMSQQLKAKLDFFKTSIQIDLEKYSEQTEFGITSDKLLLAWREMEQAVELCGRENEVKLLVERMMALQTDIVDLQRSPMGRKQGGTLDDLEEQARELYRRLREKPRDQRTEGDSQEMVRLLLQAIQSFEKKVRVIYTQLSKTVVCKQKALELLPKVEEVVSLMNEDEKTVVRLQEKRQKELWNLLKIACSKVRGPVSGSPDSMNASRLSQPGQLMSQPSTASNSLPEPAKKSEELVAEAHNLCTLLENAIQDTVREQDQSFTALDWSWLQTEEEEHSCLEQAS
Assay type: biochemical
How it was run: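 Radiometric read-out: streptavidin capture of 33P-labelled bio-GST-IκBα(1-54), 0.2 μM, after a 2 h room-temperature reaction started with ATP/[γ-33P]ATP. Enzyme was recombinant His-tagged human IKK-β expressed in Sf21 insect cells, used at 0.6 μg/ml in Tris-HCl pH 7.6/MgCl2 kinase buffer. Compounds added in 2.5% DMSO.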

`N#Cc1c(C2CCCNC2)cc(-c2c(O)cccc2OCc2ccc(Cl)c(Cl)c2)nc1N` (stereo not drawn) [Example 2-05] and `N#Cc1c(C2CCCNC2)cc(-c2c(O)cccc2OCc2ccc(Cl)cc2Cl)nc1N` (stereo not drawn) [Example 2-34] cannot be ordered by pIC50: over 6.30 for the first, over 6.30 for the second.

`Cc1ccccc1COc1cccc(O)c1-c1cc(C2CCCNC2)c(C#N)c(N)n1` (stereo not drawn) [Example 2-06] and `N#Cc1c(C2CCCNC2)cc(-c2c(O)cccc2OCc2ccccc2F)nc1N` (stereo not drawn) [Example 2-25] cannot be ordered by pIC50: over 6.30 for the first, over 6.30 for the second.

`N#Cc1c(C2CCCNC2)cc(-c2c(O)cccc2OCc2ccccc2-c2ccccc2)nc1N` (stereo not drawn) [Example 2-22] and `N#Cc1c(C2CCCNC2)cc(-c2c(O)cccc2OCc2ccc(-c3ccccc3)cc2)nc1N` (stereo not drawn) [Example 2-33] cannot be ordered by pIC50: over 6.30 for the first, over 6.30 for the second.

`N#Cc1c(C2CCNCC2)cc(-c2c(O)cccc2OCc2ccccc2)nc1N` [Example 2-23] and `N#Cc1c(C2CCNCC2)cc(-c2c(O)cccc2OCCc2ccccc2)nc1N` [Example 2-52] cannot be ordered by pIC50: over 6.30 for the first, over 6.30 for the second.

`N#Cc1c(C2CCCNC2)cc(-c2c(O)cccc2OCc2ccc(Br)cc2)nc1N` (stereo not drawn) [Example 2-24] and `N#Cc1c(C2CCCNC2)cc(-c2c(O)cccc2OCc2ccc(F)cc2)nc1N` (stereo not drawn) [Example 2-28] cannot be ordered by pIC50: over 6.30 for the first, over 6.30 for the second.

`N#Cc1c(C2CCCNC2)cc(-c2c(O)cccc2OCc2ccc(F)cc2F)nc1N` (stereo not drawn) [Example 2-26] and `N#Cc1c(C2CCCNC2)cc(-c2c(O)cccc2OCc2ccc(F)c(F)c2)nc1N` (stereo not drawn) [Example 2-29] cannot be ordered by pIC50: over 6.30 for the first, over 6.30 for the second.

`N#Cc1c(C2CCCNC2)cc(-c2c(O)cccc2OCc2cccc(F)c2)nc1N` (stereo not drawn) [Example 2-27] and `N#Cc1c(C2CCCNC2)cc(-c2c(O)cccc2OCc2ccccc2F)nc1N` (stereo not drawn) [Example 2-37] cannot be ordered by pIC50: over 6.30 for the first, over 6.30 for the second.

`COC(=O)c1ccc(COc2cccc(O)c2-c2cc(C3CCCNC3)c(C#N)c(N)n2)cc1` (stereo not drawn) [Example 2-30] and `Cc1ccc(COc2cccc(O)c2-c2cc(C3CCCNC3)c(C#N)c(N)n2)cc1` (stereo not drawn) [Example 2-35] cannot be ordered by pIC50: over 6.30 for the first, over 6.30 for the second.

`CC(C)(C)c1ccc(COc2cccc(O)c2-c2cc(C3CCCNC3)c(C#N)c(N)n2)cc1` (stereo not drawn) [Example 2-31] and `N#Cc1c(C2CCCNC2)cc(-c2c(O)cccc2OCc2ccc(C(F)(F)F)cc2)nc1N` (stereo not drawn) [Example 2-36] cannot be ordered by pIC50: over 6.30 for the first, over 6.30 for the second.

`N#Cc1c(C2CCCNC2)cc(-c2c(O)cccc2OCc2cccc3ccccc23)nc1N` (stereo not drawn) [Example 2-32] and `N#Cc1c(C2CCCNC2)cc(-c2c(O)cccc2OCc2ccc3ccccc3n2)nc1N` (stereo not drawn) [Example 2-45] cannot be ordered by pIC50: over 6.30 for the first, over 6.30 for the second.

`COC(=O)c1ccc(COc2cccc(O)c2-c2cc(C3CCCNC3)c(C#N)c(N)n2)cc1` (stereo not drawn) [Example 2-38] and `N#Cc1c(C2CCCNC2)cc(-c2c(O)cccc2OCc2ccc(Br)cc2)nc1N` (stereo not drawn) [Example 2-39] cannot be ordered by pIC50: over 6.30 for the first, over 6.30 for the second.

`N#Cc1c(CCN)cc(-c2c(O)cccc2OCc2ccccc2)nc1N` [Example 2-40] and `N#Cc1c(C2CCCNC2)cc(-c2c(O)cccc2OCCc2ccccc2)nc1N` (stereo not drawn) [Example 2-41] cannot be ordered by pIC50: over 6.30 for the first, over 6.30 for the second.

`N#Cc1c(C2CCCNC2)cc(-c2c(O)cccc2OCc2ccccn2)nc1N` (stereo not drawn) [Example 2-42] and `N#Cc1c(C2CCCNC2)cc(-c2c(O)cccc2OCc2cccnc2)nc1N` (stereo not drawn) [Example 2-43] cannot be ordered by pIC50: over 6.30 for the first, over 6.30 for the second.

`N#Cc1c(C2CCCNC2)cc(-c2c(O)cccc2OCc2ccncc2)nc1N` (stereo not drawn) [Example 2-44] and `CCOc1cccc(O)c1-c1cc(C2CCCNC2)c(C#N)c(N)n1` (stereo not drawn) [Example 2-58] cannot be ordered by pIC50: over 6.30 for the first, over 6.30 for the second.

`N#Cc1c(C2CCCNC2)cc(-c2c(O)cccc2OCCC(c2ccccc2)c2ccccc2)nc1N` (stereo not drawn) [Example 2-46] and `N#Cc1c(C2CCCNC2)cc(-c2c(O)cccc2OCCCc2ccccc2)nc1N` (stereo not drawn) [Example 2-50] cannot be ordered by pIC50: over 6.30 for the first, over 6.30 for the second.

`N#Cc1c(C2CCCNC2)cc(-c2c(O)cccc2OCc2csc3ccc(Cl)cc23)nc1N` (stereo not drawn) [Example 2-47] and `Cc1cc(COc2cccc(O)c2-c2cc(C3CCCNC3)c(C#N)c(N)n2)no1` (stereo not drawn) [Example 2-49] cannot be ordered by pIC50: over 6.30 for the first, over 6.30 for the second.

`N#Cc1c(C2CCCNC2)cc(-c2c(O)cccc2OCc2ncon2)nc1N` (stereo not drawn) [Example 2-48] and `CCCOc1cccc(O)c1-c1cc(C2CCCNC2)c(C#N)c(N)n1` (stereo not drawn) [Example 2-55] cannot be ordered by pIC50: over 6.30 for the first, over 6.30 for the second.

`N#Cc1c(C2CCCNC2)cc(-c2c(O)cccc2OCC(=O)c2ccccc2)nc1N` (stereo not drawn) [Example 2-51] and `Nc1nc(-c2c(O)cccc2OCc2ccccc2)cc(C2CCCNC2)c1CO` (stereo not drawn) [Example 12-02] cannot be ordered by pIC50: over 6.30 for the first, over 6.30 for the second.

`N#Cc1c(C2CCCNC2)cc(-c2c(O)cccc2OCC2CCCCC2)nc1N` (stereo not drawn) [Example 2-53] and `C=CCOc1cccc(O)c1-c1cc(C2CCCNC2)c(C#N)c(N)n1` (stereo not drawn) [Example 2-56] cannot be ordered by pIC50: over 6.30 for the first, over 6.30 for the second.

`CC(C)Oc1cccc(O)c1-c1cc(C2CCCNC2)c(C#N)c(N)n1` (stereo not drawn) [Example 2-54] and `CC(C)COc1cccc(O)c1-c1cc(C2CCCNC2)c(C#N)c(N)n1` (stereo not drawn) [Example 2-59] cannot be ordered by pIC50: over 6.30 for the first, over 6.30 for the second.

`COc1cccc(O)c1-c1cc(C2CCCNC2)c(C#N)c(N)n1` (stereo not drawn) [Example 2-57] and `CCCCCOc1cccc(O)c1-c1cc(C2CCCNC2)c(C#N)c(N)n1` (stereo not drawn) [Example 2-60] cannot be ordered by pIC50: over 6.30 for the first, over 6.30 for the second.

`CN1CCCC(c2cc(-c3ccccc3O)nc(N)c2C#N)C1` (stereo not drawn) [Example 3-03] and `CCCN1CCCC(c2cc(-c3ccccc3O)nc(N)c2C#N)C1` (stereo not drawn) [Example 3-04] cannot be ordered by pIC50: over 6.30 for the first, over 6.30 for the second.

First: N#Cc1c(C2CCCN(Cc3ccccc3)C2)cc(-c2ccccc2O)nc1N (stereo not drawn) [Example 3-05]
Second: N#Cc1c(C2CCCN(CCc3ccccc3)C2)cc(-c2ccccc2O)nc1N (stereo not drawn) [Example 3-06]
The pIC50 of the first is higher: over 6.30 for the first, 5.70 to 6.30 for the second. The first is the more potent here.

Compared with `COc1ccc(CN2CCCC(c3cc(-c4c(O)cccc4O)nc(N)c3C#N)C2)cc1` (stereo not drawn) [Example 3-07], `COc1ccc(CN2CCCC(c3cc(-c4c(O)cccc4OCC4CC4)nc(N)c3C#N)C2)cc1` (stereo not drawn) [Example 3-08] is lower in pIC50: over 6.30 for the first, 5.00 to 5.70 for the second. The first is the more potent here.

`CCCOc1cccc(O)c1-c1cc(C2CCCNC2)c(CO)c(N)n1` (stereo not drawn) [Example 12-03] and `CCCOc1cccc(O)c1-c1cc(C2CCNCC2)c(CO)c(N)n1` [Example 12-06] cannot be ordered by pIC50: over 6.30 for the first, over 6.30 for the second.

`CC(C)(C)COc1cccc(O)c1-c1cc(C2CCCNC2)c(CO)c(N)n1` (stereo not drawn) [Example 12-04] and `CC(C)(C)COC(=O)NCc1c(C2CCCNC2)cc(-c2c(O)cccc2OCC2CC2)nc1N` (stereo not drawn) [Example 23-10] cannot be ordered by pIC50: over 6.30 for the first, over 6.30 for the second.

`Nc1nc(-c2c(O)cccc2OCC2CC2)cc(C2CCNCC2)c1CO` [Example 12-05] and `CC(=O)NCc1c(C2CCNCC2)cc(-c2c(O)cccc2OCC2CC2)nc1N` [Example 23-07] cannot be ordered by pIC50: over 6.30 for the first, over 6.30 for the second.

`CC(C)CCCOc1cccc(O)c1-c1cc(C2CCNCC2)c(CO)c(N)n1` [Example 12-07] and `CC(C)CCCOc1cccc(O)c1-c1cc(C2CCNCC2)c2c(n1)NC(=O)OC2` [Example 18-15] cannot be ordered by pIC50: over 6.30 for the first, over 6.30 for the second.

`O=C1Nc2nc(-c3c(O)cccc3F)cc(C3CCCNC3)c2CO1` (stereo not drawn) [Example 18-07] and `CCCOc1cccc(O)c1-c1cc(C2CCCNC2)c2c(n1)NC(=O)OC2` (stereo not drawn) [Example 18-11] cannot be ordered by pIC50: over 6.30 for the first, over 6.30 for the second.

`O=C1Nc2nc(-c3ncccc3O)cc(C3CCCNC3)c2CO1` (stereo not drawn) [Example 18-08] and `O=C1Nc2nc(-c3c(O)cccc3OCc3ccccc3)cc(C3CCCNC3)c2CO1` (stereo not drawn) [Example 18-10] cannot be ordered by pIC50: over 6.30 for the first, over 6.30 for the second.

Compared with `Cc1cc(-c2c(O)cccc2OCC2CC2)nc2c1COC(=O)N2` [Example 18-09], `O=C1Nc2nc(-c3c(O)cccc3OCC3CC3)cc(C3CCNCC3)c2CO1` [Example 18-13] is higher in pIC50: 5.00 to 5.70 for the first, over 6.30 for the second.

First: O=C1Nc2nc(-c3c(O)cccc3O)cc(C3CCNCC3)c2CO1 [Example 18-12]
Second: CCCOc1cccc(O)c1-c1cc(C2CCNCC2)c2c(n1)NC(=O)OC2 [Example 18-14]
The pIC50 of the first is lower: 5.70 to 6.30 for the first, over 6.30 for the second.

`O=C1Nc2nc(-c3c(O)cccc3OCc3ccccc3)cc(C3CCNCC3)c2CO1` [Example 18-16] and `CC(C)OC(=O)NCc1c(C2CCCNC2)cc(-c2c(O)cccc2OCC2CC2)nc1N` (stereo not drawn) [Example 23-08] cannot be ordered by pIC50: over 6.30 for the first, over 6.30 for the second.

First: CC(=O)NCc1c(C2CCCNC2)cc(-c2ccccc2O)nc1N (stereo not drawn) [Example 23-04]
Second: CCC(=O)NCc1c(C2CCCNC2)cc(-c2ccccc2O)nc1N (stereo not drawn) [Example 23-06]
The pIC50 of the first is higher: over 6.30 for the first, 5.70 to 6.30 for the second. The first is the more potent here.

`Nc1nc(-c2ccccc2O)cc(C2CCCNC2)c1CNC(=O)C1CC1` (stereo not drawn) [Example 23-05] and `CN(C)C(=O)NCc1c(C2CCCNC2)cc(-c2c(O)cccc2OCC2CC2)nc1N` (stereo not drawn) [Example 23-11] cannot be ordered by pIC50: over 6.30 for the first, over 6.30 for the second.

`CC(C)COC(=O)NCc1c(C2CCCNC2)cc(-c2c(O)cccc2OCC2CC2)nc1N` (stereo not drawn) [Example 23-09] and `CCCNC(=O)NCc1c(C2CCCNC2)cc(-c2c(O)cccc2OCC2CC2)nc1N` (stereo not drawn) [Example 23-12] cannot be ordered by pIC50: over 6.30 for the first, over 6.30 for the second.
